From the supplement of paper PMC10883282
± gives the standard deviation of the averaged measurements.

System: SW684
Assay: relative viability vs DMSO control (72 h) (fraction); higher = more viable cells
Outline: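 Sarcoma cell lines were grown in 384-well plates seeded toward 80–90% confluence and exposed 24 h later to serially diluted compound. After 72 h at 37 °C and 5% CO2, with 0.1% DMSO vehicle and a 5 µM positive control on the plates, ATPLite was read. Relative viability, given as percent growth averaged over up to triplicate wells, was rescaled so that 1 is full and 0 is none.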

Row | Compound | relative viability (0.00017 µM) | relative viability (0.00051 µM) | relative viability (0.00152 µM) | relative viability (0.00457 µM) | relative viability (0.01372 µM) | relative viability (0.04115 µM) | relative viability (0.1235 µM) | relative viability (0.3704 µM) | relative viability (1.111 µM) | relative viability (3.333 µM) | relative viability (10 µM)
1 | CO[C@H]1C[C@@H]2CC[C@@H](C)[C@@](O)(O2)C(=O)C(=O)N2CCCC[C@H]2C(=O)O[C@H]([C@H](C)C[C@@H]2CC[C@@H](OP(C)(C)=O)[C@H](OC)C2)CC(=O)[C@H](C)/C=C(\C)[C@@H](O)[C@@H](OC)C(=O)[C@H](C)C[C@H](C)/C=C/C=C/C=C/1C [Ridaforolimus] | 1.14 ± 0.081 | 1.11 ± 0.065 | 1.07 ± 0.021 | 0.971 ± 0.07 | 0.896 ± 0.043 | 0.862 ± 0.026 | 0.839 ± 0.033 | 0.846 ± 0.049 | 0.833 ± 0.025 | 0.791 ± 0.045 | 0.749 ± 0.068
2 | O=C(Cc1ccc(-c2ccc(OCCN3CCOCC3)cc2)cn1)NCc1ccccc1 [KX2-391] | 1.13 ± 0.039 | 1.15 ± 0.03 | 1.18 ± 0.014 | 1.182 ± 0.011 | 1.15 ± 0.025 | 1.04 ± 0.073 | 0.77 ± 0.02 | 0.696 ± 0.027 | 0.751 ± 0.024 | 0.762 ± 0.044 | 0.734 ± 0.033
3 | COc1cc2nccc(Oc3ccc(NC(=O)Nc4cc(C)on4)c(Cl)c3)c2cc1OC [Tivozanib] | 1.17 ± 0.059 | 1.16 ± 0.028 | 1.19 ± 0.096 | 1.19 ± 0.054 | 1.16 ± 0.042 | 1.122 ± 0.0093 | 1.15 ± 0.027 | 1.23 ± 0.066 | 1.25 ± 0.092 | 1.12 ± 0.054 | 0.918 ± 0.037
4 | CCc1cc2c(cc1N1CCC(N3CCOCC3)CC1)C(C)(C)c1[nH]c3cc(C#N)ccc3c1C2=O [Alectinib] | 1.15 ± 0.037 | 1.13 ± 0.066 | 1.11 ± 0.035 | 1.129 ± 0.011 | 1.19 ± 0.058 | 1.2 ± 0.1 | 1.21 ± 0.055 | 1.22 ± 0.073 | 1.2 ± 0.055 | 1.16 ± 0.022 | 1.18 ± 0.04
5 | COCc1c(-c2cc3cc(C)cc(OC)c3s2)c2c(N)ncnn2c1CN1CCNC(=O)C1 [Rogaratinib] | 1.11 ± 0.051 | 1.16 ± 0.028 | 1.16 ± 0.088 | 1.16 ± 0.043 | 1.15 ± 0.03 | 1.15 ± 0.018 | 1.12 ± 0.082 | 1.14 ± 0.061 | 1.09 ± 0.018 | 1.04 ± 0.019 | 0.898 ± 0.038
6 | CN1CCC(COc2cnc(-c3cccc(Cn4nc(-c5cccc(C#N)c5)ccc4=O)c3)nc2)CC1 [Tepotinib] | 1.11 ± 0.034 | 1.21 ± 0.032 | 1.14 ± 0.055 | 1.16 ± 0.039 | 1.16 ± 0.043 | 1.15 ± 0.065 | 1.18 ± 0.067 | 1.16 ± 0.096 | 1.14 ± 0.08 | 1.1 ± 0.044 | 0.865 ± 0.047
7 | Cc1cnc(Nc2ccc(OCCN3CCCC3)cc2)nc1Nc1cccc(S(=O)(=O)NC(C)(C)C)c1 [Fedratinib] | 1.12 ± 0.04 | 1.16 ± 0.04 | 1.17 ± 0.081 | 1.16 ± 0.021 | 1.15 ± 0.047 | 1.13 ± 0.038 | 1.1 ± 0.029 | 1 ± 0.023 | 0.666 ± 0.04 | 0.399 ± 0.018 | 0.0027
8 | Cn1cnc2c(F)c(Nc3ccc(Br)cc3F)c(C(=O)NOCCO)cc21 [Binimetinib] | 1.12 ± 0.038 | 1.17 ± 0.046 | 1.11 ± 0.03 | 1.11 ± 0.028 | 1.14 ± 0.037 | 1.12 ± 0.069 | 1.06 ± 0.058 | 1.01 ± 0.071 | 0.953 ± 0.035 | 0.847 ± 0.035 | 0.642 ± 0.018
9 | C[C@@H]1CCN(C(=O)CC#N)C[C@@H]1N(C)c1ncnc2[nH]ccc12 [Tofacitinib] | 1.2 ± 0.035 | 1.24 ± 0.023 | 1.2 ± 0.004 | 1.23 ± 0.028 | 1.215 ± 0.012 | 1.192 ± 0.0029 | 1.19 ± 0.018 | 1.22 ± 0.031 | 1.11 ± 0.021 | 1.1 ± 0.015 | 0.943 ± 0.029
10 | Nc1cc(C(F)(F)F)c(-c2cc(N3CCOCC3)nc(N3CCOCC3)n2)cn1 [Buparlisib] | 1.12 ± 0.044 | 1.14 ± 0.075 | 1.11 ± 0.047 | 1.11 ± 0.04 | 1.08 ± 0.049 | 1.09 ± 0.077 | 1.03 ± 0.016 | 0.9 ± 0.055 | 0.599 ± 0.041 | 0.38 ± 0.022 | 0.282 ± 0.0065
11 | Cn1cc(-c2cc3c(N4CCN(c5ncc([C@@](C)(N)c6ccc(F)cc6)cn5)CC4)ncnn3c2)cn1 [Avapritinib] | 1.058 ± 0.0041 | 1.04 ± 0.013 | 1.07 ± 0.036 | 1.05 ± 0.031 | 1.05 ± 0.035 | 1.01 ± 0.017 | 1.09 ± 0.064 | 1.06 ± 0.034 | 1.02 ± 0.021 | 1.03 ± 0.03 | 0.95 ± 0.038
12 | C=CC(=O)N1CCC([C@@H]2CCNc3c(C(N)=O)c(-c4ccc(Oc5ccccc5)cc4)nn32)CC1 [Zanubrutinib] | 0.998 ± 0.075 | 1.03 ± 0.08 | 1 ± 0.07 | 0.998 ± 0.054 | 1 ± 0.069 | 1.01 ± 0.028 | 1.01 ± 0.047 | 0.978 ± 0.074 | 0.985 ± 0.048 | 0.925 ± 0.038 | 0.89 ± 0.042
13 | CCCS(=O)(=O)Nc1ccc(F)c(C(=O)c2c[nH]c3ncc(-c4ccc(Cl)cc4)cc23)c1F [Vemurafenib] | 1.18 ± 0.038 | 1.26 ± 0.02 | 1.18 ± 0.073 | 1.21 ± 0.054 | 1.205 ± 0.0029 | 1.18 ± 0.032 | 1.207 ± 0.0074 | 1.21 ± 0.034 | 1.21 ± 0.035 | 1.04 ± 0.033 | 0.804 ± 0.17
14 | COc1cc2c(Oc3ccc4[nH]c(C)cc4c3F)ncnc2cc1OCCCN1CCCC1 [Cediranib] | 1.18 ± 0.024 | 1.17 ± 0.076 | 1.17 ± 0.03 | 1.17 ± 0.059 | 1.16 ± 0.033 | 1.169 ± 0.011 | 1.15 ± 0.029 | 1.19 ± 0.033 | 1.2 ± 0.035 | 1.19 ± 0.039 | 0.987 ± 0.058
15 | CC[C@H](Nc1ncnc2[nH]cnc12)c1nc2cccc(F)c2c(=O)n1-c1ccccc1 [Idelalisib] | 1.18 ± 0.064 | 1.22 ± 0.025 | 1.18 ± 0.07 | 1.23 ± 0.045 | 1.02 ± 0.08 | 0.946 ± 0.023 | 0.875 ± 0.049 | 0.772 ± 0.049 | 0.658 ± 0.053 | 0.6 ± 0.014 | 0.513 ± 0.017
16 | Cc1cc(Nc2ncnc3ccc(NC4=NC(C)(C)CO4)cc23)ccc1Oc1ccn2ncnc2c1 [Tucatinib] | 1.17 ± 0.019 | 1.2 ± 0.024 | 1.2 ± 0.024 | 1.18 ± 0.03 | 1.21 ± 0.068 | 1.21 ± 0.068 | 1.22 ± 0.09 | 1.19 ± 0.098 | 1.14 ± 0.016 | 1.13 ± 0.074 | 1.08 ± 0.0088
17 | N#CC[C@H](C1CCCC1)n1cc(-c2ncnc3[nH]ccc23)cn1 [Ruxolitinib] | 0.985 ± 0.022 | 1.062 ± 0.005 | 1.03 ± 0.017 | 1.04 ± 0.072 | 0.991 ± 0.028 | 0.976 ± 0.035 | 0.978 ± 0.023 | 0.9518 ± 0.0033 | 0.912 ± 0.032 | 0.915 ± 0.036 | 0.777 ± 0.012
18 | Cc1ccc(F)c(NC(=O)Nc2ccc(-c3cccc4[nH]nc(N)c34)cc2)c1 [Linifanib] | 1.11 ± 0.014 | 1.14 ± 0.02 | 1.13 ± 0.039 | 1.18 ± 0.03 | 1.17 ± 0.023 | 1.18 ± 0.04 | 1.15 ± 0.027 | 1.139 ± 0.011 | 1.16 ± 0.045 | 1.15 ± 0.049 | 1.12 ± 0.041
19 | Cc1nc(NC(=O)N2CCC[C@H]2C(N)=O)sc1-c1ccnc(C(C)(C)C(F)(F)F)c1 [Alpelisib] | 1.09 ± 0.054 | 1.12 ± 0.043 | 1.12 ± 0.059 | 1.15 ± 0.065 | 1.09 ± 0.089 | 1.05 ± 0.026 | 1.07 ± 0.061 | 0.968 ± 0.025 | 0.876 ± 0.0097 | 0.643 ± 0.025 | 0.446 ± 0.036
